The test system of one data set is Maver-1 xenograft model. As to the kind of experiment: 21 day mantle cell lymphoma xenograft study: TGI and tumor methyl mark. The format is in vivo. To be noted: all doses tested, day 21. As for the experimental part: (§1) Data presented in this example were determined after analysis of 21 day samples of mantle cell lymphoma tumors. Cmin PK samples were taken prior to the last dose on day 21. Tumors were excised, weighed and processed for methyl mark. Methyl mark reduction was measured in tumor samples and is shown as percent of vehicle control (POC). Both SYM11 and sDMA Elisa were used to measure methyl mark and the data shown is averaged from 10 animals. Tumor growth inhibition was determined using tumor volume reduction at day 21 expressed as a percent of POC. In vivo inhibition curves were also generated and IC50 values determined. Plasma levels from each group are averaged from 5 animals. […] The average body weight loss (BWL) in all groups was <6%. All doses tested show >50% TGI. […] The average BWL in all groups was <4%. The average BWL in all groups was <8%, except in the 100 mg/kg does group were 4 animals exceeded BWL of 15%.

For another data set, the system named is Granta-519. The experiment in a line: Long-term proliferation (LTP) assay. The note with it: Homo sapiens. Type of data set: cell-based.
The test system of the next data set is Maver-1. As to the kind of experiment: Long-term proliferation (LTP) assay. Type of data set: cell-based. To be noted: Homo sapiens.
The subject of data set [1] is sDMA methylation in Jeko-1 cells. The experiment in a line: sDMA western blot, 10 kDa band to total SmD3. The format is cell-based. To be noted: Homo sapiens. On the procedure: (§2) The measurement of the 10 kDa band was used to calculate the methylation IC50 values. […] Concentration-dependent decreases in the 10 kDa band were observed on day 4 in all cell lines tested with representative western blots shown for Z-138 and Maver-1 cell lines (FIG. 1). Levels of the 10 kDa band from the western blots were quantified by densitometry and ratios of 10 kDa band (postulated to be SmD3me2s) to total SmD3 were calculated to determine the IC50s (Table 2, n=1 for all samples).

Data set [2] deals with sDMA methylation in Maver-1 cells. As to the kind of experiment: sDMA western blot, 10 kDa band to total SmD3. The note with it: Homo sapiens. Type of data set: cell-based. On the procedure:
as §2

Data set [3] concerns sDMA methylation in Z-138 cells. The experiment in a line: sDMA western blot, 10 kDa band to total SmD3. The format is cell-based. To be noted: Homo sapiens. On the procedure: as §2
Data set [4] relates to sDMA methylation in Mino cells. As to the kind of experiment: sDMA western blot, 10 kDa band to total SmD3. To be noted: Homo sapiens. The format is cell-based. As for the experimental part: as §2
In data set [5] the test system is sDMA methylation in Granta-519 cells. As to the kind of experiment: sDMA western blot, 10 kDa band to total SmD3. The format is cell-based. The note with it: Homo sapiens. As for the experimental part: as §2
The nature of data set [6]: Body weight loss in Maver-1 xenograft study. Type of data set: in vivo. To be noted: 21 days. On the procedure: as §1
In the next data set the test system is Z138. As to the kind of experiment: Cell cycle analysis (propidium iodide staining, FACS). Type of data set: cell-based, Human. To be noted: 3 days. As for the experimental part: Cells were seeded in 6-well tissue culture dishes in a volume of 3 mL IMDM+10% horse serum (supplemented with 0.5 μg/mL puromycin for transduced cell lines). Cells were treated with DMSO, 10 nM Formula C, or 200 nM Formula C for 3 days. Cells were harvested by centrifuging at 2,000 RPM for 5 minutes, washing with PBS, washing with citrate buffer, then aspirating excess citrate buffer to leave approximately 50 μL remaining above pellet. Pellets were frozen at −80° C. until ready to process.
Pellets were propidium iodide-stained for FACS using the Becton Dickinson CycleTEST PLUS kit (cat. #340242). Solutions A, B, and C of the kit were thawed and then kept on ice. Cell pellets were thawed rapidly at 37° C. and pipetted up and down to resuspend in 50 μL of citrate buffer.
Approximately one quarter of the cell pellet volume was transferred to a fresh Eppendorf tube. 250 μL of solution A was added to each sample and then inverted 7 to 10 times. Samples were placed on a shaker at 150 RPM for 10 minutes at room temperature. Samples were on ice when not shaking. 250 μL of solution B and 250 μL of solution C were added to each sample in the same fashion. […]
Samples were processed by FACS on a Becton Dickinson FACSCalibur machine. The percentage of cells in each cell cycle stage was determined using the cell cycle function on the gated single cell population with FlowJo V10 software.

Data set [7] has as its system heme cancer cell lines (MCL, AML, MM, lymphoma). The experiment in a line: Cell Titer-Glo growth/death assay. Type of data set: cell-based. The note with it: several heme cancer cell lines incl. MCL, MM and lymphoma. As for the experimental part:
Heme cancer cells were treated with a PRMT5 inhibitor and a Cell Titer-Glo growth/death assay was performed.

Setting [8] is: 96 h, day 4, N = 1, read-out: sDMA Western blot IC50 10 kDa Band.
Where [9] appears, read: Table 3, read-out: sDMA Western IC50.

Each structure is given as a SMILES string. Where two headings read alike, the source gives them in different places.

On to `CC(=O)N1CCC(Nc2cc(C(=O)NC[C@H](O)CN3CCc4ccccc4C3)ccn2)CC1` [Formula B], for which the “Tumor growth inhibition (TGI)” value in the data set with Maver-1 xenograft model is above 50%. In addition, the IC50 with Granta-519 (264 h, 11-day treatment, N = 1, read-out: Formula B LTP IC50) stood at 12 nM; in the data set with Granta-519 (Table 3, read-out: LTP IC50) it was 6 nM; in the data set with Maver-1 (Maver1, 264 h, 11-day treatment, N = 1, read-out: Formula B LTP IC50), 26 nM; in the data set with Maver-1 (Maver1, Table 3, read-out: LTP IC50) it was 15.3 nM; in data set [1] (setting [8]) it was 9.5 nM; in data set [1] (setting [9]), 9.5 nM. Moreover, the IC50 was 0.1 nM in data set [2] (Maver1, 96 h, day 4, N = 1, read-out: sDMA Western blot IC50 10 kDa Band); 0.1 nM in data set [2] (Maver1, Table 3, read-out: sDMA Western IC50); 1 nM in data set [3] (setting [8]); 1 nM in data set [3] (setting [9]); 2 nM in data set [4] (setting [8]); 2 nM in data set [4] (setting [9]). The IC50 in [5] (setting [8]) and in [5] (setting [9]) was 0.3 nM in each case. Further, the IC90 in the data set with Granta-519 (264 h, 11-day treatment, N = 1, read-out: Formula B LTP IC90) came out at 77 nM; in the data set on Maver-1 (Maver1, 264 h, 11-day treatment, N = 1, read-out: Formula B LTP IC90), 73 nM. The “average body weight loss (BWL) in all groups” value in [6] was below 4%.
As for `O=C(NC[C@H](O)CN1CCc2ccccc2C1)c1ccnc(NC2CCC2)c1` [Formula C], the cell cycle effect result with Z138 (10 nM) was “G1 arrest”; in the data set with Z138 (200 nM) it was “cell death”. In addition, the “proliferation in heme cancer cell lines” value in data set [7] is listed as “inhibits proliferation”.

The record behind these values is patent publication US10653693B2, “PRMT5 inhibitors and uses thereof” (Epizyme, Inc., priority 2014, dated 2020).
